In ChEMBL document CHEMBL1130048, “Biological and conformational examination of stereochemical modifications using the template melanotropin peptide, Ac-Nle-c[Asp-His-Phe-Arg-Trp-Ala-Lys]-NH2, on human melanocortin receptors” (J Med Chem, 1997):
pEC50, pIC50: −log10 of the molar value.

What was measured:
[1] = biological target: T1, Melanocortin receptor 4 (Homo sapiens, UniProt P32245); test: Effective concentration for intracellular cAMP accumulation in L-cells expressing Melanocortin 4 receptor; assay type: functional, cell-based
T1 sequence (P32245 whole entry): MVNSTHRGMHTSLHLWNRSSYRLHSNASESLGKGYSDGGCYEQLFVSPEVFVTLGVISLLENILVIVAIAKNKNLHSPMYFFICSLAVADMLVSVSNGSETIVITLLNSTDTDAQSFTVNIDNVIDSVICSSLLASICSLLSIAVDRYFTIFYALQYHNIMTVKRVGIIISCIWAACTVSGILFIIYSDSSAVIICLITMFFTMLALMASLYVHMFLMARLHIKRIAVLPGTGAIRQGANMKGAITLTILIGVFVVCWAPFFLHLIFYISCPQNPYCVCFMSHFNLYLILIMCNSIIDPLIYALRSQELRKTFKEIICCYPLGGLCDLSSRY

[2] = biological target: Melanocortin receptor 5 (Homo sapiens, UniProt P33032); test: Inhibitory concentration against human Melanocortin 5 receptor (hMC5R)
Sequence of Melanocortin receptor 5 (P33032 whole entry): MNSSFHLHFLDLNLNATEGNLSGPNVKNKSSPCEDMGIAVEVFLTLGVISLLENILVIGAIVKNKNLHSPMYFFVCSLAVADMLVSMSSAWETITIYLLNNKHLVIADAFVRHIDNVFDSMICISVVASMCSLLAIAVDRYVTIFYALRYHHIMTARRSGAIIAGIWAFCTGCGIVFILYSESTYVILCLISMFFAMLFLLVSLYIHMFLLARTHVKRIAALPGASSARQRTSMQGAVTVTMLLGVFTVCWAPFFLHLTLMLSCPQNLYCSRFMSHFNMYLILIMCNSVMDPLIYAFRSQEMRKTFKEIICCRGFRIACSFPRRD

[3] = biological target: T2, Melanocortin receptor 3 (Homo sapiens, UniProt P41968); test: Effective concentration that was able to generate 50% maximal intracellular cAMP in L-cells transfected with Melanocortin 3 receptor; assay type: functional, cell-based
T2 sequence (P41968 whole entry): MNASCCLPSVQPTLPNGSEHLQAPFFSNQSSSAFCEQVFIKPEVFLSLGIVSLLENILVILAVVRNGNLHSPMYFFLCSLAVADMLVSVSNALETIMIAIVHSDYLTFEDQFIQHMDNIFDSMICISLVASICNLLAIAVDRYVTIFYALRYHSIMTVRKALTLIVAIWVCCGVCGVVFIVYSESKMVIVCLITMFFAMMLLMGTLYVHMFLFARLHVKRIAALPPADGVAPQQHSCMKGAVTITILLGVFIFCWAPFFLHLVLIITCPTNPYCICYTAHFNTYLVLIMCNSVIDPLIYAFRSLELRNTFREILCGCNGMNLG

[4] = biological target: T2, Melanocortin receptor 3; test: Inhibitory concentration against human Melanocortin 3 receptor (hMC3R)
[5] = biological target: T3, Melanocyte-stimulating hormone receptor (Homo sapiens, UniProt Q01726); test: Effective concentration for intracellular cAMP accumulation in L-cells expressing Melanocortin 1 receptor; assay type: functional, cell-based
T3 sequence (Q01726 whole entry): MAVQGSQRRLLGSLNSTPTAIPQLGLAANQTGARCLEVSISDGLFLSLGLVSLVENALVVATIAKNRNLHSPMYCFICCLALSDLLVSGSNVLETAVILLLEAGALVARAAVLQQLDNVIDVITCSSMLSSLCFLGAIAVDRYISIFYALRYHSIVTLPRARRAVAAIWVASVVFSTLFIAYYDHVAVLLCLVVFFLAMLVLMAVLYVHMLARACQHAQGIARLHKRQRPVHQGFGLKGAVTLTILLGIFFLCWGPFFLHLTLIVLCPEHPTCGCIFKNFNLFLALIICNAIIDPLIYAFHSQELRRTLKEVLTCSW

[6] = biological target: T3, Melanocyte-stimulating hormone receptor; test: Inhibitory concentration against human Melanocortin 1 receptor (hMC1R)
[7] = biological target: T1, Melanocortin receptor 4; test: Inhibitory concentration against human Melanocortin 4 receptor (hMC4R)

Row | Compound | pEC50 [1] | pIC50 [2] | pEC50 [3] | pIC50 [4] | pEC50 [5] | pIC50 [6] | pIC50 [7]
1 | CC(=O)N[C@@H]1CC(=O)NCCCC[C@H](C(N)=O)NC(=O)[C@@H](C)NC(=O)[C@H](Cc2c[nH]c3ccccc23)NC(=O)[C@@H](CCCNC(=N)N)NC(=O)[C@H](Cc2ccccc2)NC(=O)[C@@H](Cc2cnc[nH]2)NC1=O | 8.53 | < 6.00 | 7.05 | 6.99 | 7.87 | 8.71 | 8.69
2 | CCCC[C@H](NC(C)=O)C(=O)N[C@H]1CC(=O)NCCCC[C@@H](C(N)=O)NC(=O)[C@H](C)NC(=O)C(Cc2c[nH]c3ccccc23)NC(=O)[C@H](CCCN=C(N)N)NC(=O)[C@@H](Cc2ccccc2)NC(=O)[C@H](Cc2c[nH]cn2)NC1=O (single isomer, unassigned) |  |  |  |  | 10.01 | 9.46 | 
3 | CCCC[C@H](NC(C)=O)C(=O)N[C@H]1CC(=O)NCCCC[C@@H](C(N)=O)NC(=O)[C@H](C)NC(=O)C(Cc2c[nH]c3ccccc23)NC(=O)[C@H](CCCN=C(N)N)NC(=O)[C@H](Cc2ccccc2)NC(=O)[C@H](Cc2c[nH]cn2)NC1=O (single isomer, unassigned) |  |  |  |  | 9.52 | 9.04 | 
4 | CCCC[C@H](NC(C)=O)C(=O)N[C@H]1CC(=O)NCCCC[C@@H](C(N)=O)NC(=O)[C@H](C)NC(=O)C(Cc2c[nH]c3ccccc23)NC(=O)[C@H](CCCN=C(N)N)NC(=O)C(Cc2ccccc2)NC(=O)[C@H](Cc2c[nH]cn2)NC1=O (single isomer, unassigned) |  |  |  |  | 8.58 | 7.65 | 
5 | CCCC[C@H](NC(C)=O)C(=O)N[C@@H]1CC(=O)NCCCC[C@@H](C(N)=O)NC(=O)[C@H](C)NC(=O)[C@@H](Cc2c[nH]c3ccccc23)NC(=O)[C@H](CCCNC(=N)N)NC(=O)[C@H](Cc2ccccc2)NC(=O)[C@H](Cc2cnc[nH]2)NC1=O |  |  |  |  | 7.47 | 6.58 | 
